Assay results taken from paper PMC6719172, “Inhibition of CpLIP2 Lipase Hydrolytic Activity by Four Flavonols (Galangin, Kaempferol, Quercetin, Myricetin) Compared to Orlistat and Their Binding Mechanisms Studied by Quenching of Fluorescence” (Molecules, 2019).

Key:
[1] = biological target: C. rugosa commercial lipase; design: method as in doi:10.1016/j.molcatb.2006.02.012; settings: cited from earlier work
CpLIP2 lipase [2] = biological target: T1, CpLIP2 lipase (Candida parapsilosis, UniProt Q8NIN8); test: Inhibition of CpLIP2 hydrolytic activity (ethyl oleate hydrolysis, GC); type: biochemical; settings: for Ki: non-competitive or uncompetitive model
Description: The effect of inhibitor concentrations on the hydrolysis reaction rate in standard conditions was assumed to follow either a non-competitive or an uncompetitive model, corresponding to Equation (1):(1) Ki=I/ V0/Vi−1 where V0 and Vi are the initial rates of the reaction without or with inhibitor at concentration I.
Standard CpLIP2 hydrolytic activity measurement. Hydrolysis activities were determined by measuring the initial rates of fatty acid and esters production (µmol·min^−1·mL^−1), using ethyl oleate (C18:1, EE) as substrates. Specific activity is the total activity expressed in µmol·min^−1·mL^−1 in relation to protein concentration (mg·mL^−1). Experiments were conducted as described by. Hydrolysis of ethyl oleate (EO) was performed in aqueous emulsions at 30 °C. This emulsion consisted of 100 µmol·mL^−1 EO emulsified by sonication (Branson Sonifier 250, 20 s, 200 watts, 145 µm amplitude) in an aqueous solution of 20 g·L^−1 poly vinyl alcohol. The reactions of hydrolysis were prepared in glass test tube by adding 100 μL of ethyl oleate emulsion to 800 µL of sodium phosphate buffer 50 mM, pH 6.5; then the solutions were incubated in water bath at 30 °C for 5 min. The reaction was started by the addition of 100 µL of enzyme solution of CpLIP2 with final concentration 3 µg·mL^−1 with activity 2000 U/mL.
The enzyme solution was pre-incubated at 25 °C, with continuous stirring at 350 rpm. Pre-incubation was conducted with 1980 µL CpLIP2 lipase diluted in sodium NaH2PO4/Na2HPO4 phosphate buffer (50 mM, pH 6.5) containing 20 µL absolute EtOH at 2 different times (1 and 30 min). This pre-incubation phase was conducted in closed vials placed during 2 h on a Radleys StarFish Multi-Experiment Workstation. The reaction was conducted for 15 min at 30 °C, and then stopped by adding 950 µL of a mixture of ethanol/sulphuric acid (100:0.8, v/v). After the addition of 50 µL of internal standards (ethanolic solution of pentadecanoic acid and its ethyl and methyl esters, 1 µmol each), lipids were extracted from the mixture with 1 mL of hexane. Samples were then prepared for analyzing esters and free fatty acids by gas chromatography (GC) as follows. Hexane extract (200 µL) was reacted with 25 µL pyridine and 25 µL N-methyl-tri (methylsilyl)-trifluoroacetamide (MSTFA) as silylating agent. Mixtures were incubated in water bath at 50 °C for 20 min, and then samples were ready for analysis. Reaction rates were determined by the analysis of fat composition by capillary gas chromatography after 15 min reaction. It was checked that less than 30% of the total substrate was converted at the end of the 15 min reaction.
A Shimadzu GC 2010 plus gas chromatograph equipped with a flame ionization detector, an automatic sampler (injected volume 0.1 μL) and a split/splitless injector was used for analysis. The capillary column was a DB-5ht (15 m × 0.25 mm, Phenomenex, Le Pecq, France). The helium carrier flow was 1 mL min^−1and the split ratio was 1:50. Temperature conditions were, for reactions with individual substrates: injector 280 °C, detector 290 °C, oven 200–225 °C at 10 °C min^−1 then to 260 °C at 35 °C·min^−1 for ethyl ester (EE) and fatty acid (FA) of C18:1. Calibration curves were realized using emulsions of mixtures of FA and monoesters prepared according to the same protocol, without enzyme and alcohol.
In order to measure the residual lipase activity in the presence of potential inhibitors, the previous method was conducted in the presence and absence of the inhibitors. For each potential inhibitor, the lipase-catalyzed rate of hydrolysis was evaluated after a pre-incubation period between the lipase and the potential inhibitors, which were solubilized in absolute ethanol at 1% of final concentration. The preincubation was performed at 25 °C with continuous stirring at 350 rpm with different concentration of inhibitors (14, 27.5, 55 µM) which represented, respectively 25, 50, 100-fold the final lipase concentration (0.55 µM). […]

CpLIP2 lipase [3] = biological target: T1, CpLIP2 lipase; test: Fluorescence resonance energy transfer between CpLIP2 and flavonols (Förster theory); type: binding
Text: Fluorescence emission spectra of CpLIP2 lipase overlap the UV absorption spectrum of each flavonol studied, that may induce fluorescence resonance energy transfer (FRET) governed by the binding distance r between the protein behaving as energy donor and the flavonol energy acceptor. The binding distance r can be calculated via Förster theory with the following Equations (10) and (11):(10) E=1−F/ F0=R06/ R06+r^6 where E is the energy transfer efficiency, which is the photons fraction absorbed and transferred by the donor to the acceptor, F and F0 are the fluorescence intensities of donor (CpLIP2) in the presence or absence of acceptor (flavonol) at the same concentrations. The parameter r is the distance between acceptor and donor, and R0 is the Förster distance, which is the critical energy transfer distance when 50% of the excitation energy is transferred from the donor to the acceptor. […] The value of R0 ranges from 20–90 Å for biological macromolecules.

CpLIP2 lipase [4] = biological target: T1, CpLIP2 lipase; test: Fluorescence emission spectrum of CpLIP2 inhibited by THL; type: binding; settings: 20-fold molar excess THL, pre-incubation at 25 °C for 30 min, excitation 285 nm
Description: As mentioned above, a mixture of 300 µL was pipetted in each well. 190 µL sodium phosphate buffer 50 mM, pH 7.0 with 100 µL of NaCl: EtOH (8:2, v/v) solution. […] In parallel, native and denatured lipases without THL were incubated in the same conditions. Denaturation of lipase was done by heating in water bath at 100 °C for 20 min.

T1 sequence (Q8NIN8 entry or part of it): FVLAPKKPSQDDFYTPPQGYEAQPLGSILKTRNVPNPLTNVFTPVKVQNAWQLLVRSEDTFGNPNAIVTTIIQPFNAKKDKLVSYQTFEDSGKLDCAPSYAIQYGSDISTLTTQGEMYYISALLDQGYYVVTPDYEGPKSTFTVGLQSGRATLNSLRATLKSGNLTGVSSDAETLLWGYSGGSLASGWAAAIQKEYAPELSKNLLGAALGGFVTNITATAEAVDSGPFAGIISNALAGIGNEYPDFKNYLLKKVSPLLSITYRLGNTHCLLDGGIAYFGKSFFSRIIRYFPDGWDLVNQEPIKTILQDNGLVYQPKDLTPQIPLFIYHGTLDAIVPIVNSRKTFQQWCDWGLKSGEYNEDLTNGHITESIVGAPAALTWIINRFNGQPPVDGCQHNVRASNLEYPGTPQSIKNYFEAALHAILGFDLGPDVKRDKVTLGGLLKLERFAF

(±)-catechin [reference compound]
IC50 [1]: 7500 µM

CCCCCCCCCCC[C@@H](C[C@@H]1OC(=O)[C@H]1CCCCCC)OC(=O)[C@H](CC(C)C)NC=O [THL, tetrahydrolipstatin, reference compound]
Ki (CpLIP2 lipase [2]; estimated after 1 min of pre-incubation): 1.2 µM | Ki (CpLIP2 lipase [2]; estimated after 30 min of pre-incubation): 0.6 µM | inhibition of CpLIP2 activity (CpLIP2 lipase [2]; after 1 min pre-incubation, concentration not given): ~100% | inhibition at 14 µM (CpLIP2 lipase [2]; read-out: inhibition of CpLIP2 catalytic activity): 90% | remaining activity at 14 µM (CpLIP2 lipase [2]; read-out: residual activity, 14 µM (25-fold molar excess), 1 min pre-incubation): 17.7% | remaining activity at 27.5 µM (CpLIP2 lipase [2]; read-out: residual activity, 27.5 µM (50-fold), 1 min pre-incubation): 3.9% | remaining activity at 55 µM (CpLIP2 lipase [2]; read-out: residual activity, 55 µM (100-fold), 1 min pre-incubation): 2.3% | occurrence of FRET with CpLIP2 lipase (CpLIP2 lipase [3]): no FRET occurred | blue shift of CpLIP2 fluorescence emission maximum (CpLIP2 lipase [4]): 4 nm
